Results as given in ChEMBL document CHEMBL5584313, “Design and Synthesis of 7-Oxabicyclo[2.2.1]heptane-2,3-dicarboxylic Acid Derivatives as PP5 Inhibitors To Reverse Temozolomide Resistance in Glioblastoma Multiforme” (J Med Chem, 2024).
pIC50: −log10 of the molar value. The source made the active and inactive calls. The rule behind the calls is not given here.

Tests used:
[1] = AUC(0 to infinity) in Sprague-Dawley rat at 5 mg/kg, iv measured upto 24 hrs by LC-MS/MS method; type: ADME, organism-based; settings: in vivo
U-87MG ATCC [2] = experiment: Upregulation of p21 expression in human U-87 MG cells at 6.25 to 100 uM after 24 hrs by Western blotting analysis; type: functional, cell-based; settings: dose 6.25-100 µM
U-87MG ATCC [3] = experiment: Upregulation of p53 expression in human U-87 MG cells at 6.25 to 100 uM after 24 hrs by Western blotting analysis; type: functional, cell-based; settings: dose 6.25-100 µM
U-87 MG [4] = experiment: Antitumor activity against human U-87 MG cells xenografted in BALB/c nude mouse assessed as increase in p53 expression at 3 mg/kg, po measured after 4 hrs by Western blotting analysis; type: functional, organism-based; settings: U-87MG ATCC
[5] = Toxicity in BALB/c nude mouse xenografted with U-87 MG cells assessed as heart damage at 1.5 to 3 mg/kg, po administered every other day for 18 days in presence of 40 mg/kg TMZ by H and E staining based assay; type: organism-based; settings: in vivo, 432 h, dose 1.5-3 mg/kg, time 18 day
U-87 MG [6] = experiment: Synergistic antiproliferative activity against human U-87 MG cells at 10 uM in presence of TMZ; type: functional, cell-based; settings: U-87MG ATCC
[7] = AUC(0 to infinity) in Sprague-Dawley rat at 25 mg/kg, po measured upto 24 hrs by LC-MS/MS method; type: ADME, organism-based; settings: in vivo
U-87 MG [8] = experiment: Antitumor activity against human U-87 MG cells xenografted in BALB/c nude mouse assessed as reduction in MGMT expression at 1.5 to 3 mg/kg, po measured after 4 hrs in presence of 40 mg/kg TMZ by Western blotting analysis; type: functional, organism-based; settings: U-87MG ATCC, dose 1.5-3 mg/kg
[9] = Half-life in Sprague-Dawley rat at 25 mg/kg, po measured upto 24 hrs by LC-MS/MS method; type: ADME, organism-based; settings: in vivo
U-87MG ATCC [10] = experiment: Downregulation of cyclin D1 expression in human U-87 MG cells at 25 uM incubated for 24 hrs by Western blotting analysis; type: functional, cell-based
[11] = Cmax in Sprague-Dawley rat at 25 mg/kg, po measured upto 24 hrs by LC-MS/MS method; type: ADME, organism-based; settings: in vivo
U-87 MG [12] = experiment: Antitumor activity against human U-87 MG cells xenografted in BALB/c nude mouse assessed as tumor growth inhibition at 1.5 mg/kg, po administered every other day for 18 days in presence of 40 mg/kg TMZ; type: functional, U-87MG ATCC; settings: 432 h, time 18 day, read-out: TGI
[13] = Apparent volume of distribution in Sprague-Dawley rat at 5 mg/kg, iv measured upto 24 hrs by LC-MS/MS method; type: ADME, organism-based; settings: in vivo, read-out: Vz
[14] = Half-life in Sprague-Dawley rat at 5 mg/kg, iv measured upto 24 hrs by LC-MS/MS method; type: ADME, organism-based; settings: in vivo
U-87MG ATCC [15] = experiment: Downregulation of MGMT expression in human U-87 MG cells at 25 uM incubated for 24 hrs in presence of TMZ by Western blotting analysis; type: functional, cell-based
HCT-116 = experiment: Cytotoxicity against human HCT-116 cells incubated for 48 hrs by CCK8 assay; type: functional, cell-based; settings: HCT-116, 48 h
Homo sapiens = species: Homo sapiens; experiment: Selectivity ratio of IC50 for PP2A (unknown origin ) to IC50 for PP5 (unknown origin)

AUC(0-inf) [1]: 13300 ng·h/mL
AUC(0-inf) [7]: 54400 ng·h/mL
half-life [9]: 3.94 h
Cmax [11]: 11300 ng/mL
Vd [13]: 1.32 L/kg
half-life [14]: 2.41 h
Ratio IC50 (Homo sapiens): 38
Structure (SMILES): O=C(O)[C@@H]1[C@H](C(=O)n2ccc3ccccc32)[C@H]2CC[C@@H]1O2
Activity (U-87MG ATCC [2]): Active
Activity (U-87MG ATCC [3]): Active
Activity (U-87 MG [4]): Active
Activity [5]: Non-Toxic
Activity (U-87 MG [6]): Active
Activity (U-87 MG [8]): Active
Activity (U-87MG ATCC [10]): Active
inhibition in vivo at 1.5 mg/kg (U-87 MG [12]): 70.9%
Activity (U-87MG ATCC [15]): Active
pIC50 (HCT-116): 4.58
